These compounds were tested against T1, p53 Y220C (Homo sapiens, UniProt P04637, Y220C) (assay: In vitro DNA binding activity assay (HTRF / TR-FRET): stabilization of p53 Y220C and increase of its DNA binding activity). Conditions: recombinant His-tagged p53 Y220C DNA binding domain (aa 94-312), biotin-labeled consensus DNA, incubated at 27° C. or 29° C. for 60 min.
T1 construct: The recombinant protein was a truncation mutant containing only amino acids 94-312 of p53; made in house; host or cells: E. coli
T1 sequence (P04637 94-312, change not shown): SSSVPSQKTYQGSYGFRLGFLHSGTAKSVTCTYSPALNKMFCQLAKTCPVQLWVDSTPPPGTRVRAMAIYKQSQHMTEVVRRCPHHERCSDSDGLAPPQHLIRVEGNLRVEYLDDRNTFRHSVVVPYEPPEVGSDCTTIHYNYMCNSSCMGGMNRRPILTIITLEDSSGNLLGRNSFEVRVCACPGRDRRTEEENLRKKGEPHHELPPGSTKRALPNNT
Format: biochemical
In short: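 Test compounds, diluted 3-fold in DMSO from 4.5 mM stocks, were incubated with bacterially expressed His-tagged p53 Y220C at room temperature for 15 min, and after a further step for 20 min. DNA binding was detected by time-resolved FRET between APC and europium labels. SC150 marks the concentration increasing binding by 50%.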

Compound	SC150 (concentration of the compound required to increase the DNA binding activity by 50%)
CN(C)c1cc(S(C)(=O)=O)ccc1OCC#Cc1cc2c(N[C@H]3CC[C@@H](N(C)C)CC3)cccc2n1CC(F)(F)F [Compound 111A, (1S,4S)-N^4-(2-{3-[2-(dimethylamino)-4-methanesulfonyl-phenoxy]prop-1-yn-1-yl}-1-(2,2,2-trifluoroethyl)-1H-indol-4-yl)-N^1,N^1-dimethylcyclohexane-1,4-diamine]	++++ (++++ = 0.2 μM ≤ SC150 < 1 μM)
CN(C)c1cc(S(C)(=O)=O)ccc1OCC#Cc1cc2c(N[C@H]3CC[C@H](N(C)C)CC3)cccc2n1CC(F)(F)F [Compound 112A, (1R,4R)-N^4-(2-{3-[2-(dimethylamino)-4-methanesulfonyl-phenoxy]prop-1-yn-1-yl}-1-(2,2,2-trifluoroethyl)-1H-indol-4-yl)-N^1,N^1-dimethylcyclohexane-1,4-diamine]	+++ (+++ = 0.1 μM ≤ SC150 < 0.2 μM)
CNC(=O)c1ccc(NCC#Cc2cc3c(N[C@H]4CC[C@H](N(C)C)CC4)cccc3n2CC(F)(F)F)c(OCC#N)c1 [Compound 113A, 3-(cyanomethoxy)-N-methyl-4-{[3-(4-{[(1R,4R)-4-(dimethyl-amino)cyclohexyl]amino}-1-(2,2,2-trifluoro-ethyl)-1H-indol-2-yl)prop-2-yn-1-yl]amino}benzamide]	+ (+ = 0 μM ≤ SC150 < 0.05 μM)
CNC(=O)c1ccc(NCC#Cc2cc3c(N[C@H]4CC[C@H](N(C)C)CC4)cccc3n2CC(F)(F)F)c(OCCC#N)c1 [Compound 114A, 3-(2-cyanoethoxy)-N-methyl-4-{[3-(4-{[(1R,4R)-4-(dimethyl-amino)cyclohexyl]amino}-1-(2,2,2-trifluoro-ethyl)-1H-indol-2-yl)prop-2-yn-1-yl]amino}benzamide]	+ (+ = 0 μM ≤ SC150 < 0.05 μM)
CC(=O)Nc1cc(S(C)(=O)=O)ccc1OCC#Cc1cc2c(N[C@H]3CC[C@H](N(C)C)CC3)cccc2n1CC(F)(F)F [Compound 115A, N-(5-methanesulfonyl-2-{[3-(4-{[(1R,4R)-4-(dimethylamino)cyclohexyl]amino}-1-(2,2,2-trifluoro-ethyl)-1H-indol-2-yl)prop-2-yn-1-yl]oxy}phenyl)acetamide]	++ (++ = 0.05 μM ≤ SC150 < 0.1 μM)
CN(C)[C@H]1CC[C@H](Nc2cccc3c2cc(C#CCNc2ccc(S(C)(=O)=O)cc2OCF)n3CC(F)(F)F)CC1 [Compound 117A, (1R,4R)—N^1-(2-(3-((2-(fluoromethoxy)-4-(methylsulfonyl)phenyl)amino)prop-1-yn-1-yl)-1-(2,2,2-trifluoroethyl)-1H-indol-4-yl)-N^4,N^4-dimethylcyclohexane-1,4-diamine]	+ (+ = 0 μM ≤ SC150 < 0.05 μM)
CCS(=O)(=O)c1ccc(NCC#Cc2cc3c(N[C@H]4CC[C@H](N(C)C)CC4)cccc3n2CC(F)(F)F)c(OC)c1 [Compound 119A, (1R,4R)—N^4-[2-(3-{[4-(ethanesulfonyl)-2-methoxyphenyl]amino}prop-1-yn-1-yl)-1-(2,2,2-trifluoroethyl)-1H-indol-4-yl]-N^1,N^1-dimethylcyclohexane-1,4-diamine]	+ (+ = 0 μM ≤ SC150 < 0.05 μM)
CCS(=O)(=O)c1ccc(NCC#Cc2cc3c(N[C@H]4CC[C@@H](N(C)C)CC4)cccc3n2CC(F)(F)F)c(OC)c1 [Compound 120A, (1S,4S)—N^4-[2-(3-{[4-(ethanesulfonyl)-2-methoxyphenyl]amino}prop-1-yn-1-yl)-1-(2,2,2-trifluoroethyl)-1H-indol-4-yl]-N^1,N^1-dimethylcyclohexane-1,4-diamine]	+ (+ = 0 μM ≤ SC150 < 0.05 μM)

Source: patent US12428406B2 (PMV Pharmaceuticals, Inc., priority 2019, dated 2025)
